In US12358912B2 (ASCENTAGE PHARMA (SUZHOU) CO., LTD., priority 2020, dated 2025):

Columns and labels:
Type in all cases: physicochemical
[1] = Evaluation of hygroscopicity by Dynamic Moisture Sorption Analyzer (DVS), with XRPD before and after DVS; conditions: for weight increase by hygroscopy (80% RH): DVS; for XRPD change: XRPD before and after DVS
[2] = Stability test (2): salt crystalline forms at high temperature, high humidity and light, detection by HPLC and XRPD; conditions: for total impurities (%): HPLC
[3] = Stability test (1): physical and chemical stability by XRPD and HPLC at 80° C., 40° C./75% RH and 25° C./60% RH; conditions: for purity (area %): HPLC
Method: (sealed) for 24 hours, at 40° C./75% RH and 25° C./60% RH (open) for 1 week, respectively. The physical and chemical stability of the samples were tested by XRPD and HPLC.

[4] = light (RT, white light 6980 lux, UV 282 μW/cm2), 5 days
[5] = light (RT, white light 6980 lux, UV 282 μW/cm2), 10 days
[6] = 80° C. (sealed) 24 hours, 40° C./75% RH and 25° C./60% RH (open) 1 week
[7] = 60° C. (open), 5 days, listed as XXXVI
[8] = 60° C. (open), 10 days, listed as XXXVI
[9] = 60° C. (open), 30 days, listed as XXXVI
[10] = light (RT, white light 6980 lux, UV 282 μW/cm2), 5 days, listed as XXXVI
[11] = light (RT, white light 6980 lux, UV 282 μW/cm2), 10 days, listed as XXXVI
[12] = 60° C. (open), 5 days, listed as XL
[13] = 60° C. (open), 10 days, listed as XL
[14] = 60° C. (open), 30 days, listed as XL
[15] = light (RT, white light 6980 lux, UV 282 μW/cm2), 5 days, listed as XL
[16] = light (RT, white light 6980 lux, UV 282 μW/cm2), 10 days, listed as XL

Row | Compound | weight increase by hygroscopy (80% RH) [1] [%] | XRPD change [1] | XPRD ([2]; 60° C. (open), 5 days) | XPRD ([2]; 60° C. (open), 10 days) | XPRD ([2]; 60° C. (open), 30 days) | total impurities (%) ([2]; 60° C. (open), 5 days) | total impurities (%) ([2]; 60° C. (open), 10 days) | total impurities (%) ([2]; 60° C. (open), 30 days) | total impurities (%) ([2]; RT/75% RH (open), 5 days) | total impurities (%) ([2]; RT/75% RH (open), 10 days) | total impurities (%) ([2]; RT/75% RH (open), 30 days) | total impurities (%) [2, 4] [%] | total impurities (%) [2, 5] [%] | total impurities (%) ([2]; the initial sample, 0 day) | XPRD ([2]; RT/75% RH (open), 5 days) | XPRD ([2]; RT/75% RH (open), 10 days) | XPRD ([2]; RT/75% RH (open), 30 days) | XPRD [2, 4] | XPRD [2, 5] | XPRD ([2]; the initial sample, 0 day) | also measured
1 | O=C(NS(=O)(=O)c1ccc(NC[C@H]2COCCO2)c([N+](=O)[O-])c1)c1ccc(N2CCN(CC3=C(c4ccc(Cl)cc4)CC4(CCC4)CC3)CC2)cc1Oc1cnc2[nH]ccc2c1.O=C(O)/C=C\C(=O)O [XXIV] | 1.246 | changed | No change | No change | No change | 0.48 | 0.48 | 0.61 | 0.50 | 0.50 | 0.50 | 0.73 | 0.72 | 0.50 | No change | No change | No change | No change | No change | XXIV | 
2 | Cc1ccc(S(=O)(=O)O)cc1.O=C(NS(=O)(=O)c1ccc(NC[C@H]2COCCO2)c([N+](=O)[O-])c1)c1ccc(N2CCN(CC3=C(c4ccc(Cl)cc4)CC4(CCC4)CC3)CC2)cc1Oc1cnc2[nH]ccc2c1 [XXIX] | 0.948 | no change | No change | No change | No change | 0.64 | 0.65 | 0.66 | 0.65 | 0.65 | 0.60 | 0.64 | 0.59 | 0.65 | No change | No change | No change | No change | No change | XXIX | 
3 | O=C(NS(=O)(=O)c1ccc(NC[C@H]2COCCO2)c([N+](=O)[O-])c1)c1ccc(N2CCN(CC3=C(c4ccc(Cl)cc4)CC4(CCC4)CC3)CC2)cc1Oc1cnc2[nH]ccc2c1.O=S(=O)(O)c1ccccc1 [XXVII] | 3.32 | no change | No change | No change | No change | 1.26 | 1.37 | 1.33 | 1.22 | 1.25 | 1.27 | 1.20 | 1.28 | 1.19 | No change | No change | No change | No change | No change | XXVII | 
4 | CS(=O)(=O)O.O=C(NS(=O)(=O)c1ccc(NC[C@H]2COCCO2)c([N+](=O)[O-])c1)c1ccc(N2CCN(CC3=C(c4ccc(Cl)cc4)CC4(CCC4)CC3)CC2)cc1Oc1cnc2[nH]ccc2c1 [XXXIII] | 7.82 | changed |  |  |  | 0.90 | 0.91 | 1.11 | 0.67 | 0.71 | 0.70 | 0.84 | 1.09 | 0.67 |  |  |  | No change | No change | XXXIII | 
5 | O=C(NS(=O)(=O)c1ccc(NCC2COCCO2)c([N+](=O)[O-])c1)c1ccc(N2CCN(CC3=C(c4ccc(Cl)cc4)CC4(CCC4)CC3)CC2)cc1Oc1cnc2[nH]ccc2c1 (centres unmarked) [amorphous form XXV] |  |  |  |  |  |  |  |  |  |  |  |  |  |  |  |  |  |  |  |  | chemical stability: degradation (HPLC purity) [3, 6]: did not degrade; physical stability: crystalline form (XRPD) [3, 6]: did not change; purity (area %) ([3]; 25° C./60% RH 1 week (open)): 99.42 area %; purity (area %) ([3]; 40° C./75% RH 1 week (open)): 99.45 area %; purity (area %) ([3]; 80° C. 24 hours (sealed)): 99.42 area %; purity (area %) ([3]; starting point): 99.43 area %

Further lines, with some results ahead:

Row | weight increase by hygroscopy (80% RH) [1] [%] | XRPD change [1] | XPRD ([2]; 60° C. (open), 5 days) | XPRD ([2]; 60° C. (open), 10 days) | XPRD ([2]; 60° C. (open), 30 days) | total impurities (%) ([2]; 60° C. (open), 5 days) | total impurities (%) ([2]; 60° C. (open), 10 days) | total impurities (%) ([2]; 60° C. (open), 30 days) | total impurities (%) ([2]; RT/75% RH (open), 5 days) | total impurities (%) ([2]; RT/75% RH (open), 10 days) | total impurities (%) ([2]; RT/75% RH (open), 30 days) | total impurities (%) [2, 4] [%] | total impurities (%) [2, 5] [%] | total impurities (%) ([2]; the initial sample, 0 day) | XPRD ([2]; RT/75% RH (open), 5 days) | XPRD ([2]; RT/75% RH (open), 10 days) | XPRD ([2]; RT/75% RH (open), 30 days) | XPRD [2, 4] | XPRD [2, 5] | XPRD ([2]; the initial sample, 0 day) | Compound | also measured
6 | 0.37 | no change | No change | No change | No change | 0.90 | 0.89 | 0.86 | 0.80 | 0.82 | 0.81 | 0.88 | 1.02 | 0.76 | No change | No change | No change | No change | No change | XXXIX | O=C(NS(=O)(=O)c1ccc(NC[C@H]2COCCO2)c([N+](=O)[O-])c1)c1ccc(N2CCN(CC3=C(c4ccc(Cl)cc4)CC4(CCC4)CC3)CC2)cc1Oc1cnc2[nH]ccc2c1.O=C(O)CC(O)(CC(=O)O)C(=O)O [XXXIX] | 
7 | 0.90 | no change | No change | No change | No change | 0.89 | 0.92 | 0.83 | 0.82 | 0.86 | 0.74 | 0.82 | 1.02 | 0.80 | No change | No change | No change | No change | No change | XXX | O=C(NS(=O)(=O)c1ccc(NC[C@H]2COCCO2)c([N+](=O)[O-])c1)c1ccc(N2CCN(CC3=C(c4ccc(Cl)cc4)CC4(CCC4)CC3)CC2)cc1Oc1cnc2[nH]ccc2c1.O=S(=O)(O)O [XXX] | 
8 |  | no change |  |  |  |  |  |  |  |  |  |  |  |  |  |  |  |  |  | XXXVI | O=C(NS(=O)(=O)c1ccc(NCC2COCCO2)c([N+](=O)[O-])c1)c1ccc(N2CCN(CC3=C(c4ccc(Cl)cc4)CC4(CCC4)CC3)CC2)cc1Oc1cnc2[nH]ccc2c1 (centres unmarked) [citrate crystalline Form XXXVI] | weight increase by hygroscopy (80% RH) ([1]; listed as XXXVI): 2.00%; XPRD [2, 7]: changed; XPRD [2, 8]: changed; XPRD [2, 9]: changed; total impurities (%) [2, 7]: 0.97%; total impurities (%) [2, 8]: 1.01%; total impurities (%) [2, 9]: 0.98%; total impurities (%) ([2]; RT/75% RH (open), 5 days, listed as XXXVI): 0.95%; total impurities (%) ([2]; RT/75% RH (open), 10 days, listed as XXXVI): 0.95%; total impurities (%) ([2]; RT/75% RH (open), 30 days, listed as XXXVI): 1.00%; total impurities (%) [2, 10]: 1.06%; total impurities (%) [2, 11]: 1.36%; total impurities (%) ([2]; the initial sample, 0 day, listed as XXXVI): 1.02%; XPRD [2, 10]: no change; XPRD [2, 11]: no change
9 |  | no change |  |  |  |  |  |  |  |  |  |  |  |  | No change | No change |  |  |  |  | O=C(NS(=O)(=O)c1ccc(NCC2COCCO2)c([N+](=O)[O-])c1)c1ccc(N2CCN(CC3=C(c4ccc(Cl)cc4)CC4(CCC4)CC3)CC2)cc1Oc1cnc2[nH]ccc2c1 (centres unmarked) [maleate crystalline Form XL] | weight increase by hygroscopy (80% RH) ([1]; listed as XL): 1.41%; XPRD [2, 12]: No change; XPRD [2, 13]: No change; XPRD [2, 14]: No change; total impurities (%) [2, 12]: 1.15%; total impurities (%) [2, 13]: 1.18%; total impurities (%) [2, 14]: 1.28%; total impurities (%) ([2]; RT/75% RH (open), 5 days, listed as XL): 0.93%; total impurities (%) ([2]; RT/75% RH (open), 10 days, listed as XL): 1.06%; total impurities (%) ([2]; RT/75% RH (open), 30 days, listed as XL): 0.90%; total impurities (%) [2, 15]: 1.08%; total impurities (%) [2, 16]: 1.18%; total impurities (%) ([2]; the initial sample, 0 day, listed as XL): 0.91%; XPRD [2, 15]: No change; XPRD [2, 16]: No change
